The target of test [1] is Protein farnesyltransferase (Bos taurus, UniProt P29702+P49355). Nature of the test: Inhibition of Bovine farnesyl transferase. Type of test: protein-complex assay.
The target in test [2] is Protein farnesyltransferase (Mus musculus, UniProt Q61239+Q8K2I1). Nature of the test: Effective concentration against H-ras processing in transformed NIH3T3 cells. The format is functional, cell-based.
The target in test [3] is Geranylgeranyl transferase type I (Bos taurus, UniProt P29702+Q5EAD5). Description: Inhibition of Bovine geranylgeranyl transferase. Type of test: protein-complex assay.
Test [4] deals with Protein farnesyltransferase (Bos taurus) (UniProt P29702+P49355). Nature of the test: Percentage inhibition of Bovine farnesyl transferase at 100 nM. Type of test: protein-complex assay.
The species named for another test is Bos taurus. Nature of the test: Selectivity for Bovine farnesyl transferase over geranylgeranyl transferase.

Consider 67 molecules from ChEMBL document CHEMBL1145145, “Design and synthesis of o-trifluoromethylbiphenyl substituted 2-amino-nicotinonitriles as inhibitors of farnesyltransferase” (Bioorg Med Chem Lett, 2005).

pEC50, pIC50: −log10 of the molar value. Where only a bound is given, the exact number is not on record here.

On to `Cc1ccccc1-c1cc(C(OCc2cccc(F)c2)c2cncn2C)ccc1C#N` (centres undefined), for which, in test [1], the pIC50 (usually the negative decadic logarithm of the IC50, by convention in mol/L) was 7.42.
Regarding `Cn1cncc1C(OCc1ccc(C#N)c(N2CCC[C@@H]2CO)n1)c1ccc(C#N)c(-c2ccccc2C(F)(F)F)c1` (some centres undefined), the pIC50 is 8.70 in test [1] and 6.04 in test [3]. Moreover, the pEC50 – broadly, the negative decadic logarithm of the EC50, by convention in mol/L – in test [2] was 6.77.
Turning to `Cc1ccccc1-c1cc(C(OCc2ccc3ccccc3c2)c2cncn2C)ccc1C#N` (centres undefined), in test [4], the inhibition (usually the relative decrease from the control value, in per cent) stood at 76%.
For the molecule `Cn1cncc1C(OCc1ccc(C#N)c(N2CCCC(O)C2)n1)c1ccc(C#N)c(-c2ccccc2C(F)(F)F)c1` (centres undefined), the pIC50 is 8.89 in test [1] and 5.85 in test [3]. For the same molecule, the pEC50 in test [2] was 7.89.
In test [1], `Cc1cccc(COC(c2ccc(C#N)c(-c3ccccc3C)c2)c2cncn2C)c1` (centres undefined) showed a pIC50 of 7.21.
For `Cc1ccccc1-c1cc(C(OCc2ccc(C#N)cc2)c2cncn2C)ccc1C#N` (stereo in doubt; 10a), the results for the pIC50 in test [1] and in test [3] were 8.32 and 6.74, respectively. This molecule also showed a pEC50 in test [2] of 6.38.
Taken in the same sequence, the figures for `CC(=O)N1CCN(c2nc(COC(c3ccc(C#N)c(-c4ccccc4C(F)(F)F)c3)c3cncn3C)ccc2C#N)CC1` (centres undefined) were 8.59, 5.74 and 6.89.
As for `COC(=O)c1cccc(COC(c2ccc(C#N)c(-c3ccccc3C)c2)c2cncn2C)c1` (centres undefined), the pIC50 in test [1] is 7.21.
Regarding `Cn1cncc1C(OCc1ccc(C#N)cn1)c1ccc(C#N)c(-c2ccccc2C(F)(F)F)c1` (centres undefined), the pIC50 in test [1] is 8.57; in test [3], 5.82. Also, in test [2], the pEC50 was 7.05.
Taken in the same sequence, the figures for `Cn1cncc1C(OCc1ccc(C#N)c(NCC2CCOC2)n1)c1ccc(C#N)c(-c2ccccc2C(F)(F)F)c1` (centres undefined) were 8.11, 5.66 and 6.70.
`Cc1ccccc1COC(c1ccc(C#N)c(-c2ccccc2C)c1)c1cncn1C` (centres undefined): in test [1], the pIC50 is 7.27.
Turning to `Cn1cncc1C(OCc1ccc(F)c(C(F)(F)F)c1)c1ccc(C#N)c(-c2ccccc2C(F)(F)F)c1` (centres undefined), the pIC50 in test [1] was 8.39; in test [3], 6.92. The molecule also gave a pEC50 in test [2] of 7.00.
Regarding `Cc1ccccc1-c1cc(C(OCc2ccc(C#N)cc2)c2cncn2C)ccc1C#N` (stereo in doubt; 4q), in test [1], the pIC50 was 8.40.
For the molecule `Cc1ccccc1-c1cc(C(OCc2noc(-c3ccccc3)n2)c2cncn2C)ccc1C#N` (centres undefined), the inhibition in test [4] stood at 56%.
Take `Cn1cncc1C(OCc1ccc(C#N)c(NCCc2ccccc2)n1)c1ccc(C#N)c(-c2ccccc2C(F)(F)F)c1` (centres undefined): the figures for the pIC50 in test [1] and in test [3] were 8.04 and 5.64, respectively. For the same molecule, the pEC50 in test [2] was below 6.00.
With `Cn1cncc1C(OCc1ccc(C#N)c(N2CCC(CO)CC2)n1)c1ccc(C#N)c(-c2ccccc2C(F)(F)F)c1` (centres undefined), the results for the pIC50 in test [1] and in test [3] were 8.74 and 5.85, respectively. The pEC50 in test [2] was 7.96.
In test [1], `Cc1ccccc1-c1cc(C(OCc2ccc(S(C)(=O)=O)cc2)c2cncn2C)ccc1C#N` (centres undefined) gave a pIC50 of 7.42.
Same read-out and setting: as for `Cc1ccccc1-c1cc(C(OCc2ccc(C(C)C)cc2)c2cncn2C)ccc1C#N` (centres undefined), the figure is 7.29.
The same measure, in the same setting: as for `Cc1ccccc1-c1cc(C(OCc2ccc(Cl)cc2)c2cncn2C)ccc1C#N` (centres undefined), the figure is 7.96; as for `Cc1ccccc1-c1cc(C(OCc2cccc(Br)c2)c2cncn2C)ccc1C#N` (centres undefined), 7.89.
As for `Cn1cncc1C(OCc1ccc(C#N)cc1)c1ccc(C#N)c(-c2cccc3ccccc23)c1` (centres undefined), the pEC50 in test [2] was 6.96.
For the molecule `Cc1ccccc1-c1cc(C(OCc2c(Cl)cccc2Cl)c2cncn2C)ccc1C#N` (centres undefined), the pIC50 in test [1] was 7.09.
Take `Cn1cncc1C(OCc1ccc(C(F)(F)F)c(F)c1)c1ccc(C#N)c(-c2ccccc2C(F)(F)F)c1` (centres undefined): the pIC50 in test [1] was 8.21; in test [3], 6.80. Besides, the pEC50 in test [2] was below 6.00.
Consider `Cc1ccccc1-c1cc(C(OCc2cc(Cl)nc(Cl)c2)c2cncn2C)ccc1C#N` (centres undefined), for which the pIC50 in test [1] was 7.89.
Turning to `Cn1cncc1C(OCc1ccc(Cl)c(Cl)c1)c1ccc(C#N)c(-c2ccccc2C(F)(F)F)c1` (centres undefined), the pIC50 in test [1] is 8.77; in test [3], 7.14.
In the case of `Cn1cncc1C(OCc1ccc(C#N)c(N2CCC(O)C2)n1)c1ccc(C#N)c(-c2ccccc2C(F)(F)F)c1` (centres undefined), the pIC50 in test [1] was 8.46; in test [3], 6.01. The negative logarithm of the EC50 (pEC50) in test [2] was 6.92.
Consider `Cc1ccccc1-c1cc(C(OCc2ccc(-c3ccccc3)cc2)c2cncn2C)ccc1C#N` (centres undefined), for which the pIC50 in test [1] is 7.89.
For the molecule `Cc1cccc(-c2cc(C(OCc3ccc(C#N)cc3)c3cncn3C)ccc2C#N)c1C` (centres undefined), the negative-log IC50 (pIC50) in test [1] is 8.68; in test [3] it was 6.89. This molecule also showed a pEC50 in test [2] below 6.00.
Take `CCCCN(CCC1CCCCC1)Cc1ccc(C(=O)N[C@@H](CCSC)C(=O)O)c(-c2ccccc2C)c1`: in the test filed under Bos taurus, the Selectivity was 75000.
Consider `Cc1ccccc1-c1cc(C(OCc2cccc3ccccc23)c2cncn2C)ccc1C#N` (centres undefined), for which the pIC50 in test [1] was 7.77.
Same read-out and setting: with `Cc1ccccc1-c1cc(C(OCc2cc(Cl)cc(Cl)c2)c2cncn2C)ccc1C#N` (centres undefined) the figure was 7.72; with `Cc1ccccc1-c1cc(C(OCc2ccc(Cl)c(Cl)c2)c2cncn2C)ccc1C#N` (centres undefined), 7.57.
For the molecule `Cn1cncc1C(OCc1ccc(C#N)c(N2CCC[C@@H]2C(=O)O)n1)c1ccc(C#N)c(-c2ccccc2C(F)(F)F)c1` (some centres undefined), the pIC50 was 8.44 in test [1] and 6.17 in test [3]. This molecule also showed a negative logarithm of the EC50 (pEC50) in test [2] of 6.68.
`Cc1ccccc1-c1cc(C(OCc2ccc(C(F)(F)F)cc2)c2cncn2C)ccc1C#N` (centres undefined): the pIC50 in test [1] is 7.92.
In turn, `Cc1ccccc1-c1cc(C(OCc2ccccc2Br)c2cncn2C)ccc1C#N` (centres undefined) showed an inhibition in test [1] of 65%.
On to `COC(=O)c1ccc(COC(c2ccc(C#N)c(-c3ccccc3C)c2)c2cncn2C)cc1` (centres undefined), for which the negative logarithm of the IC50 (pIC50) in test [1] was 8.21.
In the case of `COC(=O)c1ccc(COC(c2ccc(C#N)c(-c3ccccc3C)c2)c2cncn2C)o1` (centres undefined), the inhibition in test [4] came to 50%.
`Cc1ccccc1-c1cc(C(OCc2ccc(OC(F)(F)F)cc2)c2cncn2C)ccc1C#N` (centres undefined) showed a pIC50 in test [1] of 7.80.
In turn, `Cn1cncc1C(OCc1ccc(C#N)cc1)c1ccc(C#N)c(-c2cc3ccccc3s2)c1` (centres undefined) showed a pIC50 in test [1] of 6.80.
On the same count and under the same terms, as for `Cc1ccccc1-c1cc(C(OCc2cccc(Cl)c2)c2cncn2C)ccc1C#N` (centres undefined), the figure is 7.72; as for `Cc1ccccc1-c1cc(C(OCc2cccc(I)c2)c2cncn2C)ccc1C#N` (centres undefined), 7.70.
On to `CN1CCN(c2nc(COC(c3ccc(C#N)c(-c4ccccc4C(F)(F)F)c3)c3cncn3C)ccc2C#N)CC1` (centres undefined), for which the pIC50 is 8.92 in test [1] and 5.59 in test [3]. Also, in test [2], the pEC50 was 7.28.
Take `CC(=O)NC1CCN(c2nc(COC(c3ccc(C#N)c(-c4ccccc4C(F)(F)F)c3)c3cncn3C)ccc2C#N)C1` (centres undefined): the pIC50 in test [1] is 8.77; in test [3], 5.80. Besides, the pEC50 in test [2] is 6.48.
In test [1], `Cc1ccccc1-c1cc(C(OCc2ccc(F)cc2)c2cncn2C)ccc1C#N` (centres undefined) gave a pIC50 of 7.49.
The same measure, in the same setting: with `Cc1ccccc1-c1cc(C(OCc2ccc(I)cc2)c2cncn2C)ccc1C#N` (centres undefined) the figure was 7.89.
`Cn1cncc1C(OCc1ccc(C#N)cc1)c1ccc(C#N)c(-c2ccc(Cl)cc2Cl)c1` (centres undefined) showed a pIC50 in test [1] of 7.33. The same molecule had a negative logarithm of the EC50 (pEC50) in test [2] below 6.00.
The matching figures for `Cn1cncc1C(OCc1ccc(C#N)cc1)c1ccc(C#N)c(-c2ccccc2C=O)c1` (centres undefined): 8.72 and 6.96.
`Cn1cncc1C(OCc1ccc(C#N)c(NCc2cccc(F)c2)n1)c1ccc(C#N)c(-c2ccccc2C(F)(F)F)c1` (centres undefined): the pIC50 was 8.00 in test [1] and 6.12 in test [3].
`Cc1ccccc1-c1cc(C(OCc2cccc(C(F)(F)F)c2)c2cncn2C)ccc1C#N` (centres undefined) had a pIC50 in test [1] of 8.09.
On the same count and under the same terms, as for `Cc1ccccc1-c1cc(C(OCc2cccc(OC(F)(F)F)c2)c2cncn2C)ccc1C#N` (centres undefined), the figure is 8.08.
Same read-out and setting: with `Cc1ccccc1-c1cc(C(OCc2ccccc2Cl)c2cncn2C)ccc1C#N` (centres undefined) the figure was 7.32; with `Cc1ccccc1-c1cc(C(OCc2ccccc2[N+](=O)[O-])c2cncn2C)ccc1C#N` (centres undefined), 7.48; with `Cc1ccccc1-c1cc(C(OCc2csc(-c3ccc(Cl)cc3)n2)c2cncn2C)ccc1C#N` (centres undefined), 7.54.
On the same count and under the same terms, with `Cc1ccccc1-c1cc(C(OCc2ccc(C(C)(C)C)cc2)c2cncn2C)ccc1C#N` (centres undefined) the figure was 7.06; with `Cc1ccccc1-c1cc(C(OCc2ccc(Br)cc2)c2cncn2C)ccc1C#N` (centres undefined), 7.92.
`Cc1ccccc1-c1cc(C(OCc2ccccc2C#N)c2cncn2C)ccc1C#N` (centres undefined): the pIC50 in test [1] is 7.21.
On to `Cn1cncc1C(OCc1ccc(C#N)cc1)c1ccc(C#N)c(-c2ccccc2C(=O)O)c1` (centres undefined), for which, in test [1], the pIC50 was 7.85. This molecule had a negative logarithm of the EC50 (pEC50) in test [2] below 6.00.
On to `Cc1ccccc1-c1cc(C(OCc2cccc3cccnc23)c2cncn2C)ccc1C#N` (centres undefined), for which, in test [1], the pIC50 was 7.23.
`Cn1cncc1C(OCc1ccc(C#N)c(N2CCOCC2)n1)c1ccc(C#N)c(-c2ccccc2C(F)(F)F)c1` (centres undefined): the pIC50 in test [1] is 8.89; in test [3] it was 5.92. The same molecule had a pEC50 in test [2] of 7.05.
Taken in the same sequence, the figures for `Cn1cncc1C(OCc1ccc(C#N)cc1)c1ccc(C#N)c(-c2cccc(Cl)c2Cl)c1` (centres undefined) were 8.82, 7.07 and 6.62.
In test [1], `COc1ccc(COC(c2ccc(C#N)c(-c3ccccc3C)c2)c2cncn2C)cc1` (centres undefined) gave a pIC50 of 7.23.
On the same count and under the same terms, as for `Cc1ccccc1-c1cc(C(OCc2cnc(Cl)c(Cl)c2)c2cncn2C)ccc1C#N` (centres undefined), the figure is 7.82.
Still for that read-out and setting: as for `Cc1ccc(COC(c2ccc(C#N)c(-c3ccccc3C)c2)c2cncn2C)cc1` (centres undefined), the figure is 7.27.
The same measure, in the same setting: with `Cc1ccccc1-c1cc(C(OCc2ccccc2F)c2cncn2C)ccc1C#N` (centres undefined) the figure was 7.15; with `Cc1ccccc1-c1cc(C(OCc2ccc([N+](=O)[O-])cc2)c2cncn2C)ccc1C#N` (centres undefined), 8.12.
`Cn1cncc1C(OCc1ccc(C#N)cc1)c1ccc(C#N)c(-c2ccccc2C(F)(F)F)c1` (centres undefined) had a pEC50 in test [2] of 7.07. Besides, the negative logarithm of the IC50 (pIC50) in test [3] was 6.51.
`Cn1cncc1C(OCc1ccc(C#N)c(N2CCN(CCO)CC2)n1)c1ccc(C#N)c(-c2ccccc2C(F)(F)F)c1` (centres undefined): the pIC50 was 8.89 in test [1] and 5.70 in test [3]. Also, in test [2], the pEC50 was 7.52.
